Assay results: PubChem BioAssay (NCI)
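Interpolation was linear, between the two tested concentrations surrounding the appropriate level; five concentrations were tested over 48 hours in 96-well plates. The concentration for full growth arrest is given as TGI.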

Columns and labels:
Test in all cases: NCI anticancer screen, dose series, 48 h
HCT-116 colon = system: HCT-116 colon
DLD-1 colon = system: DLD-1 colon
HOP-62 NSCLC = system: HOP-62 NSCLC
XF 498 CNS = system: XF 498 CNS
NCI-H226 lung = system: NCI-H226 lung
RXF 393 renal = system: RXF 393 renal
NCI-H522 lung = system: NCI-H522 lung
CCRF-CEM leukemia = system: CCRF-CEM leukemia
HT29 colon = system: HT29 colon
KM12 colon = system: KM12 colon
UACC-62 melanoma = system: UACC-62 melanoma
DMS 273 small cell lung = system: DMS 273 small cell lung
SNB-78 CNS = system: SNB-78 CNS
SK-MEL-2 melanoma = system: SK-MEL-2 melanoma
A549 NSCLC = system: A549 NSCLC
SF-539 CNS = system: SF-539 CNS
UO-31 renal = system: UO-31 renal
U251 CNS = system: U251 CNS
HOP-18 NSCLC = system: HOP-18 NSCLC
HCC-2998 colon = system: HCC-2998 colon
SF-268 CNS = system: SF-268 CNS
786-0 renal = system: 786-0 renal
SK-OV-3 ovarian = system: SK-OV-3 ovarian
DMS 114 small cell lung = system: DMS 114 small cell lung
UACC-257 melanoma = system: UACC-257 melanoma
SF-295 CNS = system: SF-295 CNS
SNB-19 CNS = system: SNB-19 CNS
SN12C renal = system: SN12C renal
LXFL 529 NSCLC = system: LXFL 529 NSCLC
OVCAR-4 ovarian = system: OVCAR-4 ovarian
KM20L2 colon = system: KM20L2 colon
A498 renal = system: A498 renal
M14 melanoma = system: M14 melanoma
SW-620 colon = system: SW-620 colon
OVCAR-8 ovarian = system: OVCAR-8 ovarian
HL-60(TB) leukemia = system: HL-60(TB) leukemia
MOLT-4 leukemia = system: MOLT-4 leukemia
SK-MEL-5 melanoma = system: SK-MEL-5 melanoma
TK-10 renal = system: TK-10 renal
MALME-3M melanoma = system: MALME-3M melanoma
RPMI-8226 leukemia = system: RPMI-8226 leukemia
LOX IMVI melanoma = system: LOX IMVI melanoma
OVCAR-3 ovarian = system: OVCAR-3 ovarian
SNB-75 CNS = system: SNB-75 CNS
NCI-H23 lung = system: NCI-H23 lung
K-562 leukemia = system: K-562 leukemia
OVCAR-5 ovarian = system: OVCAR-5 ovarian
CAKI-1 renal = system: CAKI-1 renal
EKVX NSCLC = system: EKVX NSCLC
ACHN renal = system: ACHN renal
HCT-15 colon = system: HCT-15 colon
IGROV1 ovarian = system: IGROV1 ovarian
COLO 205 colon = system: COLO 205 colon
NCI-H460 lung = system: NCI-H460 lung
M19-MEL melanoma = system: M19-MEL melanoma
SK-MEL-28 melanoma = system: SK-MEL-28 melanoma
HOP-92 NSCLC = system: HOP-92 NSCLC

For Cc1ccc(-n2c3nc(=O)n(C)c(=O)c-3nc3ccccc32)cc1, the TGI (HCT-116 colon) was 61.3 µM, the TGI (DLD-1 colon) was > 100 µM and the TGI (HOP-62 NSCLC) was > 100 µM. The TGI (XF 498 CNS) was 55.9 µM, the TGI (NCI-H226 lung) was 68.7 µM and the TGI (RXF 393 renal) was > 100 µM. The TGI (NCI-H522 lung) was 32.6 µM, the TGI (CCRF-CEM leukemia) was 49.4 µM and the TGI (HT29 colon) was 19.1 µM. The TGI (KM12 colon) was > 100 µM, the TGI (UACC-62 melanoma) was 5.52 µM and the TGI (DMS 273 small cell lung) was 20.1 µM. For the same compound, the TGI (SNB-78 CNS) was > 100 µM, the TGI (SK-MEL-2 melanoma) was 37.2 µM and the TGI (A549 NSCLC) was 30.2 µM. The TGI (SF-539 CNS) was > 100 µM, the TGI (UO-31 renal) was > 100 µM and the TGI (U251 CNS) was 39.8 µM. The TGI (HOP-18 NSCLC) was 40.4 µM, the TGI (HCC-2998 colon) was 20.6 µM and the TGI (SF-268 CNS) was > 100 µM. The TGI (786-0 renal) was > 100 µM, the TGI (SK-OV-3 ovarian) was > 100 µM and the TGI (DMS 114 small cell lung) was 27.6 µM. The TGI (UACC-257 melanoma) was 26.9 µM, the TGI (SF-295 CNS) was 46.5 µM and the TGI (SNB-19 CNS) was 33.5 µM. For the same compound, the TGI (SN12C renal) was 34 µM, the TGI (LXFL 529 NSCLC) was > 100 µM and the TGI (OVCAR-4 ovarian) was 28.5 µM. For the same compound, the TGI (KM20L2 colon) was 26.3 µM, the TGI (A498 renal) was > 100 µM and the TGI (M14 melanoma) was 32.7 µM. The TGI (SW-620 colon) was 19.6 µM, the TGI (OVCAR-8 ovarian) was 51.8 µM and the TGI (HL-60(TB) leukemia) was 35.8 µM. The TGI (MOLT-4 leukemia) was 41.2 µM, the TGI (SK-MEL-5 melanoma) was 26.2 µM and the TGI (TK-10 renal) was > 100 µM. For the same compound, the TGI (MALME-3M melanoma) was 27.2 µM, the TGI (RPMI-8226 leukemia) was 54.6 µM and the TGI (LOX IMVI melanoma) was 43.7 µM. It also gave a TGI (OVCAR-3 ovarian) of 17.6 µM, a TGI (SNB-75 CNS) of 39.7 µM and a TGI (NCI-H23 lung) of 11.8 µM. It also gave a TGI (K-562 leukemia) of 53.7 µM, a TGI (OVCAR-5 ovarian) of 45.3 µM and a TGI (CAKI-1 renal) of 70.7 µM. The TGI (EKVX NSCLC) was 38.4 µM, the TGI (ACHN renal) was 49.2 µM and the TGI (HCT-15 colon) was 23.7 µM. The TGI (IGROV1 ovarian) was 92.1 µM, the TGI (COLO 205 colon) was 14.8 µM and the TGI (NCI-H460 lung) was 17.3 µM.
For O=C1OC(c2ccccc2)=N/C1=C\c1ccc2ccccc2c1, the TGI (HCT-116 colon) was > 100 µM, the TGI (DLD-1 colon) was > 100 µM and the TGI (XF 498 CNS) was > 100 µM. The TGI (RXF 393 renal) was > 100 µM, the TGI (NCI-H522 lung) was > 100 µM and the TGI (CCRF-CEM leukemia) was > 100 µM. For the same compound, the TGI (HT29 colon) was > 100 µM, the TGI (M19-MEL melanoma) was > 100 µM and the TGI (SK-MEL-28 melanoma) was > 100 µM. For the same compound, the TGI (KM12 colon) was > 100 µM, the TGI (UACC-62 melanoma) was > 100 µM and the TGI (SNB-78 CNS) was > 100 µM. For the same compound, the TGI (SK-MEL-2 melanoma) was > 100 µM, the TGI (A549 NSCLC) was > 100 µM and the TGI (SF-539 CNS) was > 100 µM. The TGI (UO-31 renal) was > 100 µM, the TGI (U251 CNS) was > 100 µM and the TGI (HOP-18 NSCLC) was > 100 µM. The TGI (SF-268 CNS) was > 100 µM, the TGI (786-0 renal) was > 100 µM and the TGI (SK-OV-3 ovarian) was > 100 µM. For the same compound, the TGI (DMS 114 small cell lung) was > 100 µM, the TGI (UACC-257 melanoma) was > 100 µM and the TGI (SNB-19 CNS) was > 100 µM. For the same compound, the TGI (SN12C renal) was > 100 µM, the TGI (OVCAR-4 ovarian) was > 100 µM and the TGI (KM20L2 colon) was > 100 µM. For the same compound, the TGI (A498 renal) was > 100 µM, the TGI (M14 melanoma) was > 100 µM and the TGI (SW-620 colon) was > 100 µM. The TGI (OVCAR-8 ovarian) was > 100 µM, the TGI (MOLT-4 leukemia) was > 100 µM and the TGI (HOP-92 NSCLC) was > 100 µM. For the same compound, the TGI (SK-MEL-5 melanoma) was > 100 µM, the TGI (TK-10 renal) was > 100 µM and the TGI (MALME-3M melanoma) was > 100 µM. The TGI (RPMI-8226 leukemia) was > 100 µM, the TGI (LOX IMVI melanoma) was > 100 µM and the TGI (OVCAR-3 ovarian) was > 100 µM. For the same compound, the TGI (SNB-75 CNS) was > 100 µM, the TGI (NCI-H23 lung) was > 100 µM and the TGI (K-562 leukemia) was > 100 µM. For the same compound, the TGI (OVCAR-5 ovarian) was > 100 µM, the TGI (CAKI-1 renal) was > 100 µM and the TGI (EKVX NSCLC) was > 100 µM. The TGI (ACHN renal) was > 100 µM, the TGI (HCT-15 colon) was > 100 µM and the TGI (IGROV1 ovarian) was > 100 µM. For the same compound, the TGI (COLO 205 colon) was > 100 µM and the TGI (NCI-H460 lung) was > 100 µM.
